From ChEMBL document CHEMBL4152310, “Design and synthesis of novel benzenesulfonamide containing 1,2,3-triazoles as potent human carbonic anhydrase isoforms I, II, IV and IX inhibitors” (Eur J Med Chem, 2018)

Molecular target: Carbonic anhydrase 9 (Homo sapiens, UniProt Q16790)
Assay: Binding affinity to human carbonic anhydrase 9 by stopped flow CO2 hydration assay

Ki	Compound
44.7 nM	NS(=O)(=O)c1ccc(-n2cc(C(=O)c3ccc(Br)cc3)nn2)cc1
141 nM	COc1ccc(C(=O)c2nnn(-c3ccc(S(N)(=O)=O)cc3)c2C(F)(F)F)cc1
248 nM	NS(=O)(=O)c1ccc(-n2nnc(C(=O)c3ccc4ccccc4c3)c2C(F)(F)F)cc1
47.8 nM	NS(=O)(=O)c1ccc(-n2cc(C(=O)c3ccc(F)cc3)nn2)cc1
39.8 nM	NS(=O)(=O)c1ccc(-n2nnc(C(=O)c3ccccc3)c2C(F)(F)F)cc1
48.2 nM	NS(=O)(=O)c1ccc(-n2nnc(C(=O)c3ccc(Cl)cc3)c2C(F)(F)F)cc1
362 nM	NS(=O)(=O)c1ccc(-n2cc(C(=O)c3cccs3)nn2)cc1
324 nM	Cc1ccc(C(=O)c2cn(-c3ccc(S(N)(=O)=O)cc3)nn2)cc1
136 nM	NS(=O)(=O)c1ccc(-n2cc(C(=O)c3ccccc3)nn2)cc1
127 nM	NS(=O)(=O)c1ccc(-n2cc(C(=O)c3ccc4ccccc4c3)nn2)cc1
35.8 nM	NS(=O)(=O)c1ccc(-n2nnc(C(=O)c3ccc(Br)cc3)c2C(F)(F)F)cc1
190 nM	NS(=O)(=O)c1ccc(-n2nnc(C(=O)c3ccco3)c2C(F)(F)F)cc1
156 nM	NS(=O)(=O)c1ccc(-n2nnc(C(=O)c3ccccn3)c2C(F)(F)F)cc1
27.3 nM	NS(=O)(=O)c1ccc(-n2cc(C(=O)c3ccc(Cl)cc3)nn2)cc1
217 nM	NS(=O)(=O)c1ccc(-n2cc(C(=O)c3ccco3)nn2)cc1
144 nM	Cc1ccc(C(=O)c2nnn(-c3ccc(S(N)(=O)=O)cc3)c2C(F)(F)F)cc1
45.4 nM	NS(=O)(=O)c1ccc(-n2nnc(C(=O)c3cccs3)c2C(F)(F)F)cc1
182 nM	NS(=O)(=O)c1ccc(-n2cc(C(=O)c3ccccn3)nn2)cc1
38.1 nM	NS(=O)(=O)c1ccc(-n2nnc(C(=O)c3ccc(F)cc3)c2C(F)(F)F)cc1
145 nM	COc1ccc(C(=O)c2cn(-c3ccc(S(N)(=O)=O)cc3)nn2)cc1
